In patent US9328386B2, “Markers for susceptibility to an inhibitor of an Src-family kinase” (Evotec (München) GmbH, priority 2011, dated 2016):
Read-outs that look alike come from different tables or passages of the source.

Experiments:
[1] = test system: H1666 NSCLC cell line; assay: Cellular growth inhibition (CellTiter Glo viability assay); type: cell-based; settings: Homo sapiens
[2] = test system: H520 NSCLC cell line; assay: as above; type: cell-based; settings: Homo sapiens
[3] = test system: PC9 NSCLC cell line; assay: as above; type: cell-based; settings: Homo sapiens
[4] = test system: H157 NSCLC cell line; assay: as above; type: cell-based; settings: Homo sapiens
[5] = test system: HCC4006 NSCLC cell line; assay: as above; type: cell-based; settings: Homo sapiens
[6] = test system: H2009 NSCLC cell line; assay: as above; type: cell-based; settings: Homo sapiens
[7] = test system: HCC78 NSCLC cell line; assay: as above; type: cell-based; settings: Homo sapiens
[8] = test system: HCC2279 NSCLC cell line; assay: as above; type: cell-based; settings: Homo sapiens
[9] = test system: H2077 NSCLC cell line; assay: as above; type: cell-based; settings: Homo sapiens
[10] = test system: H322M NSCLC cell line; assay: as above; type: cell-based; settings: Homo sapiens, NCI-H322M
[11] = test system: H460 NSCLC cell line; assay: as above; type: cell-based; settings: Homo sapiens
[12] = test system: H1648 NSCLC cell line; assay: as above; type: cell-based; settings: Homo sapiens
[13] = test system: H1395 NSCLC cell line; assay: as above; type: cell-based; settings: Homo sapiens
[14] = test system: HCC366 NSCLC cell line; assay: as above; type: cell-based; settings: Homo sapiens
[15] = test system: H2172 NSCLC cell line; assay: as above; type: cell-based; settings: Homo sapiens
[16] = test system: H2030 NSCLC cell line; assay: as above; type: cell-based; settings: Homo sapiens
[17] = test system: Calu6 NSCLC cell line; assay: as above; type: cell-based; settings: Homo sapiens
[18] = test system: LouNH91 NSCLC cell line; assay: as above; type: cell-based; settings: Homo sapiens
[19] = test system: HCC827 NSCLC cell line; assay: cells; settings: Homo sapiens
[20] = NCI-H1666, H1666, 96 hours of treatment, read-out: GI50
[21] = NCI-H520, H520, 96 hours of treatment, read-out: GI50
[22] = 96 h, read-out: GI50 this paper
[23] = PC9, 96 hours of treatment, read-out: GI50
[24] = NCI-H157, H157, 96 hours of treatment, read-out: GI50
[25] = HCC4006, 96 hours of treatment, read-out: GI50
[26] = NCI-H2009, H2009, 96 hours of treatment, read-out: GI50
[27] = HCC78, 96 hours of treatment, read-out: GI50
[28] = HCC2279, 96 hours of treatment, read-out: GI50
[29] = H2077, 96 hours of treatment, read-out: GI50
[30] = H322M, 96 hours of treatment, read-out: GI50
[31] = NCI-H460, H460, 96 hours of treatment, read-out: GI50
[32] = NCI-H1648, H1648, 96 hours of treatment, read-out: GI50
[33] = NCI-H1395, H1395, 96 hours of treatment, read-out: GI50
[34] = HCC366, 96 hours of treatment, read-out: GI50
[35] = NCI-H2172, H2172, 96 hours of treatment, read-out: GI50
[36] = NCI-H2030, H2030, 96 hours of treatment, read-out: GI50
[37] = Calu-6, 96 hours of treatment, read-out: GI50
[38] = LOU-NH91, LouNH91, 96 hours of treatment, read-out: GI50

Question: What does the source list for `Cc1nc(Nc2ncc(C(=O)Nc3c(C)cccc3Cl)s2)cc(N2CCN(CCO)CC2)n1` [dasatinib, N-(2-chloro-6-methylphenyl)-2-[[6-[4-(2-hydroxyethyl)piperazin-1-yl]-2-methylpyrimidin-4-yl]amino]-1,3-thiazole-5-carboxamide]?
Answer: GI50 ([1]; NCI-H1666, 96 h, read-out: GI50 this paper): 76 nM; IC50 ([1]; NCI-H1666, read-out: Sensitivity Dasatinib): < 1000 nM; GI50 [1, 20]: 76 nM; GI50 ([2]; NCI-H520, 96 h, read-out: GI50 this paper): 1430 nM; IC50 ([2]; NCI-H520, read-out: Sensitivity Dasatinib): > 1000 nM; GI50 [2, 21]: 1430 nM; GI50 [3, 22]: 20 nM; IC50 ([3]; PC-9, read-out: Sensitivity Dasatinib, PC9): < 1000 nM; GI50 [3, 23]: 20 nM; GI50 ([4]; NCI-H157, 96 h, read-out: GI50 this paper): 2630 nM; IC50 ([4]; NCI-H157, read-out: Sensitivity Dasatinib): > 1000 nM; GI50 [4, 24]: 2630 nM; GI50 ([5]; HCC4006, 96 h, read-out: GI50 this paper): 950 nM; IC50 ([5]; HCC4006, read-out: Sensitivity Dasatinib): < 1000 nM; GI50 [5, 25]: 950 nM; GI50 ([6]; NCI-H2009, 96 h, read-out: GI50 this paper): 85 nM; IC50 ([6]; NCI-H2009, read-out: Sensitivity Dasatinib): < 1000 nM; GI50 [6, 26]: 85 nM; GI50 ([7]; HCC78, 96 h, read-out: GI50 this paper): 17000 nM; IC50 ([7]; HCC78, read-out: Sensitivity Dasatinib): > 1000 nM; GI50 [7, 27]: 17000 nM; GI50 [8, 22]: 45 nM; IC50 ([8]; read-out: Sensitivity Dasatinib, HCC2279): < 1000 nM; GI50 [8, 28]: 45 nM; GI50 [9, 22]: 4750 nM; IC50 ([9]; read-out: Sensitivity Dasatinib, H2077): > 1000 nM; GI50 [9, 29]: 4750 nM; GI50 [10, 22]: 311 nM; IC50 ([10]; read-out: Sensitivity Dasatinib): < 1000 nM; GI50 [10, 30]: 311 nM; GI50 ([11]; NCI-H460, 96 h, read-out: GI50 this paper): 3900 nM; IC50 ([11]; NCI-H460, read-out: Sensitivity Dasatinib): > 1000 nM; GI50 [11, 31]: 3900 nM; GI50 ([12]; NCI-H1648, 96 h, read-out: GI50 this paper): 79 nM; IC50 ([12]; NCI-H1648, read-out: Sensitivity Dasatinib): < 1000 nM; GI50 [12, 32]: 79 nM; GI50 ([13]; NCI-H1395, 96 h, read-out: GI50 this paper): 4700 nM; IC50 ([13]; NCI-H1395, read-out: Sensitivity Dasatinib): > 1000 nM; GI50 [13, 33]: 4700 nM; GI50 ([14]; HCC366, 96 h, read-out: GI50 this paper): 17 nM; IC50 ([14]; HCC366, read-out: Sensitivity Dasatinib): < 1000 nM; GI50 [14, 34]: 17 nM; GI50 ([15]; NCI-H2172, 96 h, read-out: GI50 this paper): 5850 nM; IC50 ([15]; NCI-H2172, read-out: Sensitivity Dasatinib): > 1000 nM; GI50 [15, 35]: 5850 nM; GI50 ([16]; NCI-H2030, 96 h, read-out: GI50 this paper): 22 nM; IC50 ([16]; NCI-H2030, read-out: Sensitivity Dasatinib): < 1000 nM; GI50 [16, 36]: 22 nM; GI50 ([17]; Calu-6, 96 h, read-out: GI50 this paper): 2800 nM; IC50 ([17]; Calu-6, read-out: Sensitivity Dasatinib): > 1000 nM; GI50 [17, 37]: 2800 nM; GI50 ([18]; LOU-NH91, 96 h, read-out: GI50 this paper): 68 nM; IC50 ([18]; LOU-NH91, read-out: Sensitivity Dasatinib, LouNH91): < 1000 nM; GI50 [18, 38]: 68 nM

Question: Which results are given for `CN1CCN(CCOc2cc(OC3CCOCC3)c3c(Nc4c(Cl)ccc5c4OCO5)ncnc3c2)CC1` [saracatinib, N-(5-Chloro-1,3-benzodioxol-4-yl)-7-[2-(4-methyl-1-piperazinyl)ethoxy]-5-[(tetrahydro-2H-pyran-4-yl)oxy]-4-quinazolinamine]?
Answer: IC50 ([1]; NCI-H1666, read-out: Sensitivity Saracatinib): < 3500 nM; GI50 [1, 20]: 2200 nM; IC50 ([2]; NCI-H520, read-out: Sensitivity Saracatinib): > 3500 nM; GI50 [2, 21]: 4560 nM; IC50 ([3]; PC-9, read-out: Sensitivity Saracatinib, PC9): < 3500 nM; GI50 [3, 23]: 147 nM; IC50 ([4]; NCI-H157, read-out: Sensitivity Saracatinib): > 3500 nM; GI50 [4, 24]: 13900 nM; IC50 ([5]; HCC4006, read-out: Sensitivity Saracatinib): < 3500 nM; GI50 [5, 25]: 132 nM; IC50 ([6]; NCI-H2009, read-out: Sensitivity Saracatinib): > 3500 nM; GI50 [6, 26]: 4310 nM; IC50 ([7]; HCC78, read-out: Sensitivity Saracatinib): < 3500 nM; GI50 [7, 27]: 267 nM; IC50 ([8]; read-out: Sensitivity Saracatinib, HCC2279): < 3500 nM; GI50 [8, 28]: 660 nM; IC50 ([9]; read-out: Sensitivity Saracatinib, H2077): > 3500 nM; GI50 [9, 29]: 14800 nM; IC50 ([10]; read-out: Sensitivity Saracatinib): < 3500 nM; GI50 [10, 30]: 876 nM; IC50 ([11]; NCI-H460, read-out: Sensitivity Saracatinib): > 3500 nM; GI50 [11, 31]: 12100 nM; IC50 ([12]; NCI-H1648, read-out: Sensitivity Saracatinib): < 3500 nM; GI50 [12, 32]: 1510 nM; IC50 ([13]; NCI-H1395, read-out: Sensitivity Saracatinib): > 3500 nM; GI50 [13, 33]: 31700 nM; IC50 ([14]; HCC366, read-out: Sensitivity Saracatinib): < 3500 nM; GI50 [14, 34]: 1240 nM; IC50 ([15]; NCI-H2172, read-out: Sensitivity Saracatinib): > 3500 nM; GI50 [15, 35]: 28500 nM; IC50 ([16]; NCI-H2030, read-out: Sensitivity Saracatinib): < 3500 nM; GI50 [16, 36]: 443 nM; GI50 ([19]; HCC827, 96 h): 722 nM; IC50 ([19]; HCC827, read-out: Sensitivity Saracatinib): < 3500 nM; IC50 ([17]; Calu-6, read-out: Sensitivity Saracatinib): > 3500 nM; GI50 [17, 37]: 30000 nM; IC50 ([18]; LOU-NH91, read-out: Sensitivity Saracatinib, LouNH91): < 3500 nM; GI50 [18, 38]: 1180 nM
